How the values were obtained:
HIV-1 93IN101 = assay: Anti-HIV efficacy in human PBMCs, reverse transcriptase activity; assay type: cell-based; settings: HIV-1 93IN101, PBMCs; for IC50 / IC90: Human immunodeficiency virus 1, PBMC
Description: (§1) HIV human peripheral blood mononuclear cell (PBMC) assays were performed as described previously (Lanier et al., 2010, Antimicrob Agents Chemother 54:2901-2909 and Ptak et al., 2008, Antimicrob Agents Chemother 52:1302-1317). Briefly, fresh PBMCs, seronegative for HIV and hepatitis B virus (HBV), were isolated from blood samples of the screened donors (Biological Specialty Corporation, Colmar, Pa.) by using lymphocyte separation medium (LSM; density, 1.078±0.002 g/ml; Cellgro; Mediatech, Inc.) by following the manufacturer's instructions. Cells were stimulated by incubation in 4 μg/mL phytohemagglutinin (PHA; Sigma) for 48 to 72 h. Mitogenic stimulation was maintained by the addition of 20 U/mL recombinant human interleukin-2 (rhIL-2; R&D Systems, Inc.) to the culture medium. PHA-stimulated PBMCs from at least two donors were pooled, diluted in fresh medium, and added to 96-well plates at 5×10^4 cells/well. Cells were infected (final multiplicity of infection [MOI] of ≅0.1) in the presence of nine different concentrations of test compounds (triplicate wells/concentration) and incubated for 7 days. To determine the level of virus inhibition, cell-free supernatant samples were collected for analysis of reverse transcriptase activity (Buckheit et al., 1991, AIDS Res Hum Retroviruses 7:295-302). Following removal of supernatant samples, compound cytotoxicity was measured by the addition of 3-(4,5-dimethylthiazol-2-yl)-5-(3-carboxymethoxy-phenyl)-2-(4-sulfophenyl)-2H-tetrazolium (MTS; CellTiter 96 reagent; Promega) by following the manufacturer's instructions.

HIV-1 89BZ167 Subtype B = assay: Anti-HIV efficacy in human PBMCs; assay type: cell-based; settings: for IC50 / IC90: Human immunodeficiency virus 1, PBMC, PBMCs
Description: as §1

HIV-1 92BR025 Subtype C = assay: Anti-HIV efficacy in human PBMCs; assay type: cell-based; settings: for IC50 / IC90: Human immunodeficiency virus 1, PBMC, PBMCs
Description: as §1

HIV-1 92UG024 Subtype D = assay: Anti-HIV efficacy in human PBMCs; assay type: cell-based; settings: for IC50 / IC90: Human immunodeficiency virus 1, PBMC, PBMCs
Description: as §1

HIV-1 92UG031 Subtype A = assay: Anti-HIV efficacy in human PBMCs; assay type: cell-based; settings: for IC50 / IC90: Human immunodeficiency virus 1, PBMC, PBMCs
Description: as §1

HIV-1 93BR020 Subtype F = assay: Anti-HIV efficacy in human PBMCs; assay type: cell-based; settings: for IC50 / IC90: Human immunodeficiency virus 1, PBMC, PBMCs
Description: as §1

HIV-1 BCF02 Group O = assay: Anti-HIV efficacy in human PBMCs; assay type: cell-based; settings: for IC50 / IC90: Human immunodeficiency virus 1, PBMC; for IC50 / IC90 / Antiviral index (TC50/IC50): BCF02 Group O
Description: as §1

HIV-1 CMU08 Subtype E = assay: Anti-HIV efficacy in human PBMCs; assay type: cell-based; settings: for IC50 / IC90: Human immunodeficiency virus 1, PBMC, PBMCs
Description: as §1

HIV-1 G3 Subtype G = assay: Anti-HIV efficacy in human PBMCs; assay type: cell-based; settings: for Antiviral index (TC50/IC50): G3 Subtype G; for IC50 / IC90: Human immunodeficiency virus 1, PBMC
Description: as §1

Dengue serotypes 1-4 = assay: Antiviral spectrum: cytopathic effect assay; assay type: cell-based
HIV-1 Ba-L = assay: Antiviral activity of additional compounds (Tables 6 and 7); assay type: cell-based
Description: as §1

HIV-1 NL4-3 = assay: as above; assay type: cell-based
Description: as §1

PBMCs = assay: Compound cytotoxicity in PBMCs (MTS); assay type: cell-based, human; settings: Tables 6 and 7 study; read-out: TC50 (the source's name)
Method in brief: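 PHA-stimulated (48–72 h), IL-2-maintained pooled PBMCs from ≥2 HIV/HBV-seronegative donors were infected at MOI ≅0.1 with nine compound concentrations in triplicate and cultured 7 days. Inhibition was read from supernatant reverse transcriptase activity; cytotoxicity from MTS reduction in the same cells after supernatant removal.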

HIV-1 IIIB = assay: Infection of Sup-T1 cells by HIV-1 IIIB, p24 ELISA; settings: 50 μM, three days
[1] = Human immunodeficiency virus 1, BAL
[2] = Human immunodeficiency virus 1, NL43

Compound	Antiviral index (TC50/IC50) (HIV-1 93IN101)	IC50 (HIV-1 93IN101) [µM]	IC90 (HIV-1 93IN101) [µM]	Antiviral index (TC50/IC50) (HIV-1 89BZ167 Subtype B)	IC50 (HIV-1 89BZ167 Subtype B) [µM]	IC90 (HIV-1 89BZ167 Subtype B) [µM]	Antiviral index (TC50/IC50) (HIV-1 92BR025 Subtype C)	IC50 (HIV-1 92BR025 Subtype C) [µM]	IC90 (HIV-1 92BR025 Subtype C) [µM]	Antiviral index (TC50/IC50) (HIV-1 92UG024 Subtype D)	IC50 (HIV-1 92UG024 Subtype D) [µM]	IC90 (HIV-1 92UG024 Subtype D) [µM]	Antiviral index (TC50/IC50) (HIV-1 92UG031 Subtype A)	IC50 (HIV-1 92UG031 Subtype A) [µM]	IC90 (HIV-1 92UG031 Subtype A) [µM]	Antiviral index (TC50/IC50) (HIV-1 93BR020 Subtype F)	IC50 (HIV-1 93BR020 Subtype F) [µM]	IC90 (HIV-1 93BR020 Subtype F) [µM]	IC50 (HIV-1 BCF02 Group O; PBMCs) [µM]	IC90 (HIV-1 BCF02 Group O; PBMCs) [µM]	other results
Cc1ccc(NC(=O)CN2CCN(Cc3nc(-c4ccc(F)cc4)no3)CC2)cc1 [CMPD-7, 2-(4-((3-(4-fluorophenyl)-1,2,4-oxadiazol-5-yl)methyl)piperazin-1-yl)-N-(p-tolyl)acetamide]	> 6.13	16.3	> 100	>6.97	14.4	> 100	>9.51	10.5	> 100	>11.3	8.88	35.2	>6.72	14.9	> 100	>6.42	15.6	> 100	> 100	> 100	activity against the group O isolate HIV-1BCF02, in words (HIV-1 BCF02 Group O; over the concentrations tested, PBMCs): no activity; Antiviral index (TC50/IC50) (HIV-1 CMU08 Subtype E): >10.4; IC50 (HIV-1 CMU08 Subtype E): 9.64 µM; IC90 (HIV-1 CMU08 Subtype E): 99.7 µM; Antiviral index (TC50/IC50) (HIV-1 G3 Subtype G): >9.36; IC50 (HIV-1 G3 Subtype G): 10.7 µM; IC90 (HIV-1 G3 Subtype G): 30.2 µM; inhibitory effects on replication (Dengue serotypes 1-4): no inhibitory effects
O=C(CNC(=O)COc1ccccc1)NCc1ccc(C(=O)N2CCCCC2)cc1 [CMPD-14, N-(2-oxo-2-((4-(piperidine-1-carbonyl)benzyl)amino)ethyl)-2-phenoxyacetamide]	> 5.56	18	62.1	>4.66	21.4	40.7	>4.24	23.6	96.6	>5.41	18.5	29.5	>5.40	18.5	42.2	>4.93	20.3	32.6	21.9	45	Antiviral index (TC50/IC50) (HIV-1 BCF02 Group O): >4.57; Antiviral index (TC50/IC50) (HIV-1 CMU08 Subtype E): >6.27; IC50 (HIV-1 CMU08 Subtype E): 16 µM; IC90 (HIV-1 CMU08 Subtype E): 59.5 µM; Antiviral index (TC50/IC50) (HIV-1 G3 Subtype G): >4.88; IC50 (HIV-1 G3 Subtype G): 20.5 µM; IC90 (HIV-1 G3 Subtype G): 29.2 µM; Antiviral index (TC50/IC50) (HIV-1 Ba-L): > 3.13; IC50 (HIV-1 Ba-L; [1]): 32 µM; IC90 (HIV-1 Ba-L; [1]): > 100 µM; Antiviral index (TC50/IC50) (HIV-1 NL4-3): > 2.53; IC50 (HIV-1 NL4-3; [2]): 39.6 µM; IC90 (HIV-1 NL4-3; [2]): > 100 µM; CC50 (PBMCs): > 100 µM; inhibitory effects on replication (Dengue serotypes 1-4): no inhibitory effects
CCOc1ccc(NC(=O)Cc2cn3ccsc3n2)cc1S(=O)(=O)N1CCCCC1 [CMPD-18, N-(4-ethoxy-3-(piperidin-1-ylsulfonyl)phenyl)-2-(imidazo[2,1-b]thiazol-6-yl)acetamide]	3.00	30.8	85.2	>2.94	21.3	71.8	>2.79	22.4	75	>6.02	10.4	25.9	>3.98	15.8	64.7	>3.39	18.5	54.1	27.2	75.6	Antiviral index (TC50/IC50) (HIV-1 BCF02 Group O): >2.30; Antiviral index (TC50/IC50) (HIV-1 CMU08 Subtype E): >5.00; IC50 (HIV-1 CMU08 Subtype E): 15.9 µM; IC90 (HIV-1 CMU08 Subtype E): 95 µM; Antiviral index (TC50/IC50) (HIV-1 G3 Subtype G): >10.9; IC50 (HIV-1 G3 Subtype G): 5.73 µM; IC90 (HIV-1 G3 Subtype G): 21 µM; inhibitory effects on replication (Dengue serotypes 1-4): no inhibitory effects; HIV-1 replication (p24), in words (HIV-1 IIIB): inhibited

Source: US20130109698A1, “Small Molecule Inhibitors of Functions of the HIV-1 Matrix Protein” (priority 2010, published 2013)
